Experiment: Rate of dissolution of model melanin and color of its solutions
Type: physicochemical, Aspergillus niger
Settings: for Time of dissolution: model melanin; for Color of the solution: solution of model melanin

Structure (SMILES)	pH of the solution	Time of dissolution (1 mg/ml in PFOC) [min]	Color of the solution	Time of dissolution (not dissolved within this time)	Time of dissolution [min]
FC1(F)C(F)(F)C(F)(F)C2(F)C(F)(F)C(F)(F)C(F)(F)C(F)(F)C2(F)C1(F)F (stereo not drawn) [Perfluorodecalin (PFD), perfluorodecalin]	7	0.5	Colorless	–	–
CCN(CC)CC [Triethylamine]	8	–	–	Not dissolved in 5 hours	–
FC(F)(F)C(F)(F)C(F)(F)N(C(F)(F)C(F)(F)C(F)(F)F)C(F)(F)C(F)(F)C(F)(F)F [Tri(perfluoropropyl)amine (TPA), tri(perfluoropropyl)amine]	7	0.5	Colorless	–	–
NCCO [Monoethanolamine]	10	–	-”-	–	2
OO [4% solution of HP, hydrogen peroxide]	3.5	–	–	Not dissolved in 5 hours	–
FN(F)C1(C(F)(F)F)C(F)(F)C(F)(F)C(F)(F)C(F)(C(F)(F)F)C1(F)F (stereo not drawn) [Perfluoro-1,3-dimethyl-cyclohexylamine]	7	–	Lemon	–	3
N [0.01% ammonia, ammonia]	10.5	–	-”-	–	5
CC(=O)O [0.01 N solution of acetic acid, acetic acid]	3.5	–	–	Not dissolved in 5 hours	–
[Na+].[OH-] [0.01 N sodium hydroxide, sodium hydroxide]	9.5	–	Yellow-	–	6
FC(F)(Br)C(F)(F)Br [1,2-dibromtetrafluoroethane]	7	–	Colorless	–	5
